Data as given in paper PMC10420655, “Evaluation of α-Glucosidase Inhibition and Antihyperglycemic Activity of Extracts Obtained from Leaves and Flowers of Rumex crispus L” (Molecules, 2023).
Converted amounts (≈) assume the structure as drawn.

Target: T1, α-glucosidase type I from S. cerevisiae
T1 construct: gene MAL12
Assay: chromogenic pNPG hydrolysis, absorbance at […] nm, 96-well plate
Format: biochemical, Saccharomyces cerevisiae
Details: substrate p-nitrophenyl-α-D-glucopyranoside (20 µL of 5 mM stock), 0.1 M phosphate buffer pH 6.9, 37 °C, 15 min preincubation

`C[C@H]1O[C@H](O[C@H]2[C@H](O)[C@@H](O)[C@@H](O[C@H]3[C@H](O)[C@@H](O)C(O)O[C@@H]3CO)O[C@@H]2CO)[C@H](O)[C@@H](O)[C@@H]1N[C@H]1C=C(CO)[C@@H](O)[C@H](O)[C@H]1O` (stereo partly shown) [Acarbose] was tested, and the “IC50” value was 3698.0 ± 76.5 µg/mL (≈ 5.73 mM).
